Experimental data published in ChEMBL document CHEMBL1201862, “PubChem BioAssay data set” (2004).
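Method: 48-hour compound exposure of cells in 96-well plates, five concentrations, linear interpolation of endpoints. The concentration for 50% growth inhibition is given as GI50.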 Activity calls are given as the source filed them. Rule as the data show it: active = GI50 up to about 1.1 µM and inactive = higher.

Columns and labels:
Assay in all cases: NCI-60 cell line screen, 48 h
[1] = test system: SK-MEL-5
[2] = test system: CAKI-1
[3] = test system: Hs-578T
[4] = test system: MOLT-4
[5] = test system: COLO 205
[6] = test system: U-251
[7] = test system: HCT-15
[8] = test system: MDA-MB-435
[9] = test system: Malme-3M
[10] = test system: SF-295
[11] = test system: HL-60
[12] = test system: HCC 2998
[13] = test system: SR
[14] = test system: A549
[15] = test system: HCT-116
[16] = test system: SW-620
[17] = test system: OVCAR-3
[18] = test system: SF-539
[19] = test system: SNB-75

Structure (SMILES): N=C1OC(CN2CCN(c3ccccc3)CC2)CN1C(=O)Nc1ccccc1 (stereo not drawn)
- GI50 [1]: > 100 µM (inactive)
- GI50 [2]: > 100 µM (inactive)
- GI50 [3]: > 100 µM (inactive)
- GI50 [4]: > 100 µM (inactive)
- GI50 [5]: > 100 µM (inactive)
- GI50 [6]: > 100 µM (inactive)
- GI50 [7]: > 100 µM
- GI50 [8]: > 100 µM (inactive)
- GI50 [9]: > 100 µM (inactive)
- GI50 [10]: > 100 µM (inactive)
- GI50 [11]: 53.5 µM (inactive)
- GI50 [12]: > 100 µM (inactive)
- GI50 [13]: 57.7 µM (inactive)
- GI50 [14]: > 100 µM (inactive)
- GI50 [15]: > 100 µM (inactive)
- GI50 [16]: > 100 µM (inactive)

Structure (SMILES): CCC1(CC)C(=O)CC[C@@]2(C)C1=CC[C@H]1[C@@H]3CC[C@H](O)[C@@]3(C)CC[C@@H]12
- GI50 [1]: 47.3 µM (inactive)
- GI50 [2]: 83.8 µM (inactive)
- GI50 [3]: 24.4 µM (inactive)
- GI50 [17]: 19.7 µM (inactive)
- GI50 [4]: 25.6 µM (inactive)
- GI50 [5]: 28 µM (inactive)
- GI50 [6]: 18.1 µM (inactive)
- GI50 [7]: 46.9 µM
- GI50 [8]: 61 µM (inactive)
- GI50 [9]: 36.1 µM (inactive)
- GI50 [10]: 22.8 µM (inactive)
- GI50 [11]: 18.6 µM (inactive)
- GI50 [13]: 15.4 µM (inactive)
- GI50 [18]: 29.2 µM (inactive)
- GI50 [19]: 35.6 µM (inactive)
- GI50 [14]: 13.5 µM (inactive)
- GI50 [15]: 22.2 µM (inactive)
- GI50 [16]: 19.1 µM (inactive)

Structure (SMILES): COC(=O)c1c(C)c2c(c(C)c1C(=O)OC)-c1c(C)ccc3ccc(C)c-2c13
- GI50 [1]: 13.1 µM (inactive)
- GI50 [2]: > 100 µM (inactive)
- GI50 [3]: 23.7 µM (inactive)
- GI50 [17]: > 85.9 µM (inactive)
- GI50 [4]: 14.4 µM (inactive)
- GI50 [5]: 34.4 µM (inactive)
- GI50 [6]: 58.9 µM (inactive)
- GI50 [7]: 13 µM
- GI50 [8]: > 83 µM (inactive)
- GI50 [9]: > 55.1 µM (inactive)
- GI50 [10]: 11.4 µM (inactive)
- GI50 [11]: 5.08 µM (inactive)
- GI50 [13]: 6.78 µM (inactive)
- GI50 [18]: 51.5 µM (inactive)
- GI50 [19]: 27.8 µM (inactive)
- GI50 [14]: 37.9 µM (inactive)
- GI50 [15]: 50.1 µM (inactive)
- GI50 [16]: 32.9 µM (inactive)

Structure (SMILES): O=C(O)CCC(=O)c1ccc2c(c1)C(C(=O)O)CC2 (stereo not drawn)
- GI50 [1]: > 100 µM (inactive)
- GI50 [3]: > 100 µM (inactive)
- GI50 [17]: > 100 µM (inactive)
- GI50 [4]: > 100 µM (inactive)
- GI50 [5]: > 100 µM (inactive)
- GI50 [6]: > 100 µM (inactive)
- GI50 [7]: > 100 µM
- GI50 [8]: > 100 µM (inactive)
- GI50 [9]: > 100 µM (inactive)
- GI50 [10]: > 100 µM (inactive)
- GI50 [11]: > 100 µM (inactive)
- GI50 [12]: > 100 µM (inactive)
- GI50 [13]: > 100 µM (inactive)
- GI50 [18]: > 100 µM (inactive)
- GI50 [14]: 0.0902 µM (active)
- GI50 [15]: 0.0935 µM (active)
- GI50 [16]: > 100 µM (inactive)

Structure (SMILES): COc1ccc(C2(CC(C)C)CCNC2)cc1OC (stereo not drawn)
- GI50 [1]: > 100 µM (inactive)
- GI50 [2]: > 100 µM (inactive)
- GI50 [3]: > 100 µM (inactive)
- GI50 [5]: > 100 µM (inactive)
- GI50 [6]: > 100 µM (inactive)
- GI50 [7]: > 100 µM
- GI50 [8]: > 100 µM (inactive)
- GI50 [9]: > 100 µM (inactive)
- GI50 [10]: > 100 µM (inactive)
- GI50 [11]: > 100 µM (inactive)
- GI50 [12]: 12.9 µM (inactive)
- GI50 [13]: 76.4 µM (inactive)
- GI50 [19]: 8.18 µM (inactive)
- GI50 [14]: > 100 µM (inactive)
- GI50 [15]: > 100 µM (inactive)
- GI50 [16]: > 100 µM (inactive)

Structure (SMILES): O=c1cc2oc3ccc4ccccc4c3cc-2c(=O)[nH]1
- GI50 [1]: 15.5 µM (inactive)
- GI50 [2]: 15.3 µM (inactive)
- GI50 [3]: 24.4 µM (inactive)
- GI50 [17]: 11.4 µM (inactive)
- GI50 [4]: 2.25 µM (inactive)
- GI50 [5]: 15.3 µM (inactive)
- GI50 [6]: 10.2 µM (inactive)
- GI50 [7]: 7.55 µM
- GI50 [8]: 11 µM (inactive)
- GI50 [9]: 16.2 µM (inactive)
- GI50 [10]: 20.7 µM (inactive)
- GI50 [11]: 1.51 µM (inactive)
- GI50 [12]: 16.9 µM (inactive)
- GI50 [13]: 2.62 µM (inactive)
- GI50 [18]: 9.79 µM (inactive)
- GI50 [14]: 21 µM (inactive)
- GI50 [15]: 17.1 µM (inactive)
- GI50 [16]: 1.87 µM (inactive)

Structure (SMILES): Cc1cn(CCCCCOC(=O)NC(CCCNC(=N)N)C(=O)O)c(=O)[nH]c1=O (stereo not drawn)
- GI50 [2]: 37.1 µM (inactive)
- GI50 [3]: 15.5 µM (inactive)
- GI50 [17]: 50.9 µM (inactive)
- GI50 [4]: 35.6 µM (inactive)
- GI50 [5]: 26.1 µM (inactive)
- GI50 [6]: 50.2 µM (inactive)
- GI50 [7]: 28.1 µM
- GI50 [8]: 6.32 µM (inactive)
- GI50 [10]: 28.2 µM (inactive)
- GI50 [11]: 17 µM (inactive)
- GI50 [12]: 35.7 µM (inactive)
- GI50 [13]: 2.57 µM (inactive)
- GI50 [18]: 45.7 µM (inactive)
- GI50 [19]: 31.6 µM (inactive)
- GI50 [14]: 49.2 µM (inactive)
- GI50 [15]: 37.6 µM (inactive)
- GI50 [16]: 38.7 µM (inactive)

Structure (SMILES): O=c1c(-c2ccc3c(c2)OCO3)coc2c3c(ccc12)OCO3
- GI50 [1]: > 100 µM (inactive)
- GI50 [2]: 63.7 µM (inactive)
- GI50 [3]: 22.3 µM (inactive)
- GI50 [17]: 28.5 µM (inactive)
- GI50 [4]: > 100 µM (inactive)
- GI50 [5]: > 100 µM (inactive)
- GI50 [6]: 37.6 µM (inactive)
- GI50 [7]: 28.4 µM
- GI50 [8]: > 100 µM (inactive)
- GI50 [10]: 18 µM (inactive)
- GI50 [11]: > 100 µM (inactive)
- GI50 [12]: 58.1 µM (inactive)
- GI50 [13]: 40 µM (inactive)
- GI50 [18]: 20 µM (inactive)
- GI50 [19]: 23 µM (inactive)
- GI50 [14]: 49.9 µM (inactive)
- GI50 [15]: 33 µM (inactive)
- GI50 [16]: 39.7 µM (inactive)
